Experiments:
porcine lipase [1] = target: T1, porcine lipase (Sus scrofa, UniProt P00591); experiment: Hydrolysis by pancreatic lipase, organic solvent system; assay type: in vitro ADME; settings: organic solvent (t-amyl alcohol), 30° C., 20 h
T1 sequence (P00591 1-450): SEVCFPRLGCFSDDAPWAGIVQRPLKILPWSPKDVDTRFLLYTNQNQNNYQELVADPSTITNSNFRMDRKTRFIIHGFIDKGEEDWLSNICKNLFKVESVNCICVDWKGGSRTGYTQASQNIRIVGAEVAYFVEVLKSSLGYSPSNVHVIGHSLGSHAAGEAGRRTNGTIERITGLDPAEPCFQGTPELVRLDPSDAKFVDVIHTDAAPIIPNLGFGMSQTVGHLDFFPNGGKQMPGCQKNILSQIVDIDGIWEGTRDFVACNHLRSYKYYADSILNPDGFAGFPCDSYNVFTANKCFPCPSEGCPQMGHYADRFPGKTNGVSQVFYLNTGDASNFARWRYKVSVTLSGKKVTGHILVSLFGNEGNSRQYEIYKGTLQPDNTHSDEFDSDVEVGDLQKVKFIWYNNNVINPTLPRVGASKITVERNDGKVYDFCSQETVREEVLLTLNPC
Protocol: (§1) The digestibility of the acylated triglycerides of the present invention were done to compare with triolein. The in-vitro assays were done using two emulsion systems as in the following procedure.
Each digest was carried out with 300 mg of the fat/fat substitute, 9 ml of the t-amyl alcohol, 0.5 ml of Bis-Tris propane buffer (10 mM, pH 7.8) and 0.5 ml of porcine lipase (20 mg/ml). The reaction was incubated at 30° C. and the reaction stopped by adding 1 ml aliquots to 3 ml of isopropanol/heptane/sulfuric acid (40/10/1). The product was extracted with heptane and analyzed by GC and GC-MS at 360° C. The hydrolysis of the acetylated castor (hydrogenated) was 48% complete in 20 h and triolein was hydrolyzed to 69%.

porcine lipase [2] = target: T1, porcine lipase; experiment: Hydrolysis by pancreatic lipase, aqueous emulsion system; assay type: in vitro ADME; settings: aqueous emulsion (HMPC, sodium cholate), 30 ° C.
Protocol: as §1
A mixture of 300 mg of the fat/fat substitute, 4 ml of Bis-Tris propane buffer (10 mM, pH 7.8), 5 ml of hydroxyproylmethylcellulose (HMPC, […]), 0.5 ml of sodium cholate (0.1M) were sonicated to disperse the fats and incubated at 30 ° C. Porcine lipase (0.5 ml, 20 mg/ml) was added. The analysis of the reaction was carried out as in the above organic solution assay. Acetylated castor (hydrogenated) was 70% hydrolyzed while triolein under similar conditions was 93% hydrolyzed.

[3] = Caloric availability, two week feeding study; assay type: in vivo; settings: young male Sprague-Dawley rats, modified AIN-76 diet at 15% added fat level
Protocol: Caloric availability of the compounds are evaluated by the two week feeding study of young male Sprague-Dawley rats weighing approximately 50 to 60 gm. This caloric availability study as described described by Finley, et al. ((1994) J. Agric. Food Chem. 42:489-494) was modified to use smaller amounts of test materials. The feeding study was conducted using a modified AIN-76 diet at 15% added fat level and five test animals are used for each compound. Weight gains are monitored at days 0,3,7,10 and 14.

hydrolysis (porcine lipase [1]) [%]	hydrolyzed (porcine lipase [2]) [%]	SMILES	caloric availability [3] [kcal/g]
48	70	CCCCCCC(CCCCCCCCCCC(=O)OCC(COC(=O)CCCCCCCCCCC(CCCCCC)OC(C)=O)OC(=O)CCCCCCCCCCC(CCCCCC)OC(C)=O)OC(C)=O (stereo not shown) [acetylated castor (hydrogenated), 12-acetyloxyoctadecanoic acid triglyceride]	6
		CCCCCCCCCCCCCCCCCC(=O)OC(CCCCCC)CCCCCCCCCCCCC(=O)OCC(COC(=O)CCCCCCCCCCCCC(CCCCCC)OC(=O)CCCCCCCCCCCCCCCCC)OC(=O)CCCCCCCCCCCCCCCCC (stereo not shown) [distearoyl lesquerella oil-hydrogenated, 1,3-bis(14-octadecanoyloxy)eicosanoic acid-2-octadecanoic acid triglyceride]	5.6
